Experimental data as given in PubChem BioAssay (NCI).
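Assay format: 96-well plates, 48-hour exposure. At the TGI there is no net growth.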

Tested on: SN12K1 renal
Experiment: DTP human tumour cell line panel, 48 h

## CCCCCCCC(=O)O[C@H]1[C@H]2[C@@H](CC1(C)C)C(=O)[C@]13O[C@H]1C(=O)[C@]1(CO1)[C@]23C
  TGI: 9.3 µM
